The species entered for one data set is Rattus norvegicus. The conditions noted are these: Compound concentration 10.0 uM.
Data set [1] addresses Non-receptor tyrosine-protein kinase TYK2 (Homo sapiens) (UniProt P29597). The conditions noted are these: Compound concentration 1000.0 nM.
The target of data set [2] is 1-phosphatidylinositol 3-phosphate 5-kinase (Homo sapiens) (UniProt Q9Y2I7). The conditions noted are these: Compound concentration 1000.0 nM.
Data set [3] deals with Beta-2 adrenergic receptor (Homo sapiens) (UniProt P07550). The experiment in a line: beta 2 (h) CEREP ligand profiling. The conditions noted are these: Compound concentration 10.0 uM.
In data set [4] the target is Tyrosine-protein kinase Lck (Homo sapiens) (UniProt P06239). The conditions noted are these: Compound concentration 1000.0 nM.
Data set [5] deals with Dual specificity testis-specific protein kinase 1 (Homo sapiens) (UniProt Q15569). The conditions noted are these: Compound concentration 1000.0 nM.
In data set [6] the target is Serine/threonine-protein kinase pim-3 (Homo sapiens) (UniProt Q86V86). The conditions noted are these: Compound concentration 1000.0 nM.
The target of data set [7] is Mitogen-activated protein kinase kinase kinase 5 (Homo sapiens) (UniProt Q99683). The conditions noted are these: Compound concentration 1000.0 nM.
The target in data set [8] is Tyrosine-protein kinase JAK2 (Homo sapiens) (UniProt O60674). The conditions noted are these: Compound concentration 1000.0 nM.
Data set [9] deals with Mitogen-activated protein kinase 1 (Homo sapiens) (UniProt P28482). The conditions noted are these: Compound concentration 1000.0 nM.
Data set [10] has as its target Melatonin receptor type 1A (Homo sapiens) (UniProt P48039). The experiment in a line: ML1 CEREP ligand profiling. The conditions noted are these: Compound concentration 10.0 uM.
Data set [11] concerns the target Cyclin-dependent kinase 19 (Homo sapiens) (UniProt Q9BWU1). The conditions noted are these: Compound concentration 1000.0 nM.
Data set [12] addresses T1, Alpha-2C adrenergic receptor (Homo sapiens) (UniProt P18825).
T1 sequence (whole entry): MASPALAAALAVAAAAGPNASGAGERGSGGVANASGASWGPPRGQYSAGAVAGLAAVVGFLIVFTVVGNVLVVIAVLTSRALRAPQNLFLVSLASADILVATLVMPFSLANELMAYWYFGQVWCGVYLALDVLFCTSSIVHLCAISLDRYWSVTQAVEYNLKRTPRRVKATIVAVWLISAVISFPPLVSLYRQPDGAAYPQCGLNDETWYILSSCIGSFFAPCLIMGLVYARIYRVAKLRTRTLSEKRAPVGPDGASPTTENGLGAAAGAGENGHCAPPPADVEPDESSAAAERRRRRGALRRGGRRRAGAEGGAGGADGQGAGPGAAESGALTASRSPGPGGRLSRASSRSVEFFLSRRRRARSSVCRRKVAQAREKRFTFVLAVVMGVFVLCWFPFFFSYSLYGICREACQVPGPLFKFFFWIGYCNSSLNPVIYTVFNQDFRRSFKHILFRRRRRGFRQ
The experiment in a line: alpha 2C (h) CEREP ligand profiling. The conditions noted are these: Compound concentration 10.0 uM.

Data set [13] deals with Phosphatidylinositol 5-phosphate 4-kinase type-2 beta (Homo sapiens) (UniProt P78356). The conditions noted are these: Compound concentration 1000.0 nM.
For data set [14], the target named is ALK tyrosine kinase receptor (Homo sapiens) (UniProt Q9UM73). The conditions noted are these: Compound concentration 1000.0 nM.
Data set [15] concerns the target Serine/threonine-protein kinase WNK2 (Homo sapiens) (UniProt Q9Y3S1). The conditions noted are these: Compound concentration 1000.0 nM.
Data set [16] concerns the target Acetylcholinesterase (Homo sapiens) (UniProt P22303). In words: Acetylcholinesterase (h) CEREP ligand profiling. The conditions noted are these: Compound concentration 10.0 uM.
The target of data set [17] is Ribosomal protein S6 kinase alpha-6 (Homo sapiens) (UniProt Q9UK32). The conditions noted are these: Compound concentration 1000.0 nM.
The target in data set [18] is Tumor necrosis factor (Homo sapiens) (UniProt P01375). In words: TNF-alpha (h) CEREP ligand profiling. The conditions noted are these: Compound concentration 10.0 uM.
For data set [19], the target named is Motilin receptor (Homo sapiens) (UniProt O43193). In words: Motilin (h) CEREP ligand profiling. The conditions noted are these: Compound concentration 10.0 uM.
In data set [20] the target is Serine/threonine-protein kinase tousled-like 1 (Homo sapiens) (UniProt Q9UKI8). The conditions noted are these: Compound concentration 1000.0 nM.
For data set [21], the target named is SRSF protein kinase 1 (Homo sapiens) (UniProt Q96SB4). The conditions noted are these: Compound concentration 1000.0 nM.
In data set [22] the target is Serine/threonine-protein kinase MARK2 (Homo sapiens) (UniProt Q7KZI7). The conditions noted are these: Compound concentration 1000.0 nM.
For data set [23], the target named is MAP kinase-interacting serine/threonine-protein kinase 2 (Homo sapiens) (UniProt Q9HBH9). The conditions noted are these: Compound concentration 1000.0 nM.
The next data set concerns the target CYP2C9 (Homo sapiens, UniProt P11712). The experiment in a line: CYP2C9 inhibition CEREP ligand profiling. The conditions noted are these: compound concentration 10 uM.
Data set [24] addresses Voltage-gated L-type calcium channel (diltiazem site) (Homo sapiens, UniProt O60840+Q01668+Q13698+Q13936). The experiment in a line: Ca2+ channel (L, diltiazem site) CEREP ligand profiling. The data set is classed as protein assay. The conditions noted are these: compound concentration 10 uM.
In data set [25] the target is D(2) dopamine receptor (Homo sapiens) (UniProt P14416). The experiment in a line: D2S (h) CEREP ligand profiling. The conditions noted are these: Compound concentration 10.0 uM.
The target of data set [26] is RAC-gamma serine/threonine-protein kinase (Homo sapiens) (UniProt Q9Y243). The conditions noted are these: Compound concentration 1000.0 nM.
In data set [27] the target is Gastrin/cholecystokinin type B receptor (Homo sapiens) (UniProt P32239). In words: CCKB (h) (CCK2) CEREP ligand profiling. The conditions noted are these: Compound concentration 10.0 uM.
The target of data set [28] is Phosphatidylinositol 4-phosphate 5-kinase type-1 gamma (Homo sapiens) (UniProt O60331). The conditions noted are these: Compound concentration 1000.0 nM.
Data set [29] has as its target Serine/threonine-protein kinase RIO3 (Homo sapiens) (UniProt O14730). The conditions noted are these: Compound concentration 1000.0 nM.
The target in data set [30] is Serine/threonine-protein kinase pim-1 (Homo sapiens) (UniProt P11309). The conditions noted are these: Compound concentration 1000.0 nM.
Data set [31] has as its target GABA-A receptor; anion channel (Homo sapiens) (UniProt P14867+P47870+P18507+P28472+P48169+Q99928+Q9UN88+P34903+O00591+O14764+Q8N1C3+P18505+P78334+P47869+P31644+Q16445). In words: GABAA BZD (central) CEREP ligand profiling. Type of data set: protein-complex assay. The conditions noted are these: Compound concentration 10.0 uM.
The target in data set [32] is Calcium-activated potassium channel (Homo sapiens) (UniProt Q92952+Q9UGI6+Q12791+O15554+Q9H2S1+A8MYU2). The experiment in a line: SK+Ca channel CEREP ligand profiling. The conditions noted are these: Compound concentration 10.0 uM. Type of data set: protein assay.
Data set [33] has as its target Mu-type opioid receptor (Homo sapiens) (UniProt P35372). The experiment in a line: mu (h) (MOP) (agonist site) CEREP ligand profiling. The conditions noted are these: Compound concentration 10.0 uM.
Data set [34] has as its target Ephrin type-B receptor 3 (Homo sapiens) (UniProt P54753). The conditions noted are these: Compound concentration 1000.0 nM.
The subject of data set [35] is Epidermal growth factor receptor (Homo sapiens), P00533 [UNDEFINED MUTATION]. The conditions noted are these: Compound concentration 1000.0 nM.
Data set [36] deals with Tyrosine-protein kinase Mer (Homo sapiens) (UniProt Q12866). The conditions noted are these: Compound concentration 1000.0 nM.

The inhibition is the drop in the measured response relative to a control, in per cent.

Sequence of Serine/threonine-protein kinase tousled-like 1 (Homo sapiens) (Q9UKI8 whole entry): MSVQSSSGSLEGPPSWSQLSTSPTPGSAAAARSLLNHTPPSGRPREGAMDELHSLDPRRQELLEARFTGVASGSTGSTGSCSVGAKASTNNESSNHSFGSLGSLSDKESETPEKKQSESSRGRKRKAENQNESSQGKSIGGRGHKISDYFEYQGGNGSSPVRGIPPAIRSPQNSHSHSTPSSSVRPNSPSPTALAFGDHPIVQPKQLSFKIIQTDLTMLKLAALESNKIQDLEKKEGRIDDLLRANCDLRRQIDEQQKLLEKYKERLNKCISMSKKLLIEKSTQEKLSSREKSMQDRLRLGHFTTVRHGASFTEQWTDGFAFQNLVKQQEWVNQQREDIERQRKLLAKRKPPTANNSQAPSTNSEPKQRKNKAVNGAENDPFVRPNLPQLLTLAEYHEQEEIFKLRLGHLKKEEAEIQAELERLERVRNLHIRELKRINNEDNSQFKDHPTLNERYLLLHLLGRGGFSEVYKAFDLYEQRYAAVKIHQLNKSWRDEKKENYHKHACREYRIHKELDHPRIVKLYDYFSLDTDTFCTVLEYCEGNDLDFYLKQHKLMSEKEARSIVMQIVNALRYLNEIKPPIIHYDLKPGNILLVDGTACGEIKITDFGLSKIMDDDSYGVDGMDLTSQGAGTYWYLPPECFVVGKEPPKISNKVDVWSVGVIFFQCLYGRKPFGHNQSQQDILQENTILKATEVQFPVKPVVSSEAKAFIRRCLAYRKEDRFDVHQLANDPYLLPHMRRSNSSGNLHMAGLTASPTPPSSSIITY
Sequence of Mitogen-activated protein kinase 1 (Homo sapiens) (P28482 whole entry): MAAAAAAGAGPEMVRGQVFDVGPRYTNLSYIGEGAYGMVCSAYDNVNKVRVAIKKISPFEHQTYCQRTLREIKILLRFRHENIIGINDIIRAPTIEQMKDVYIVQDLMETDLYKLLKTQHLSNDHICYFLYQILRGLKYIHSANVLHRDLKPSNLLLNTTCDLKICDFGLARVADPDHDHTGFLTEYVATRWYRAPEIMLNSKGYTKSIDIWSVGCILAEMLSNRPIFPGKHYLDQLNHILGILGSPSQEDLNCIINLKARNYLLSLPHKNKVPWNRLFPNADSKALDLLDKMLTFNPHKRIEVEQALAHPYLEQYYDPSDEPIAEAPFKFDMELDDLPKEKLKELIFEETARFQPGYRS
Sequence of Dual specificity testis-specific protein kinase 1 (Homo sapiens) (Q15569 whole entry, looked up): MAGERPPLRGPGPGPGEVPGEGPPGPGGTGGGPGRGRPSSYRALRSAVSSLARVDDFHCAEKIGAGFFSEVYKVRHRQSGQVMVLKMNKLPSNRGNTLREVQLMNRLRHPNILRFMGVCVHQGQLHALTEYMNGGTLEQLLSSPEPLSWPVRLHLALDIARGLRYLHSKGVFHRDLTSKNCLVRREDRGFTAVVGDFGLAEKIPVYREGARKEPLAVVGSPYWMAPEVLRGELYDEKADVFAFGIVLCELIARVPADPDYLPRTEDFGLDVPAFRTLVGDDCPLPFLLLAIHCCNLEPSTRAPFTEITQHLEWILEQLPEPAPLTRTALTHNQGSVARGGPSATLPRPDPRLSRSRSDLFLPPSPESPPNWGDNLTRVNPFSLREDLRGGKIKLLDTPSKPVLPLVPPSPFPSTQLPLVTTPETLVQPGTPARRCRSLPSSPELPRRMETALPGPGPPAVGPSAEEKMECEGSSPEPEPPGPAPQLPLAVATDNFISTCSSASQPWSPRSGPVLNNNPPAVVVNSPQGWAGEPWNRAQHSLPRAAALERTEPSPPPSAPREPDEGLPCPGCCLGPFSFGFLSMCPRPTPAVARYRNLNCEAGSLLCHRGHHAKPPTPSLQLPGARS
Sequence of SRSF protein kinase 1 (Homo sapiens) (Q96SB4 whole entry): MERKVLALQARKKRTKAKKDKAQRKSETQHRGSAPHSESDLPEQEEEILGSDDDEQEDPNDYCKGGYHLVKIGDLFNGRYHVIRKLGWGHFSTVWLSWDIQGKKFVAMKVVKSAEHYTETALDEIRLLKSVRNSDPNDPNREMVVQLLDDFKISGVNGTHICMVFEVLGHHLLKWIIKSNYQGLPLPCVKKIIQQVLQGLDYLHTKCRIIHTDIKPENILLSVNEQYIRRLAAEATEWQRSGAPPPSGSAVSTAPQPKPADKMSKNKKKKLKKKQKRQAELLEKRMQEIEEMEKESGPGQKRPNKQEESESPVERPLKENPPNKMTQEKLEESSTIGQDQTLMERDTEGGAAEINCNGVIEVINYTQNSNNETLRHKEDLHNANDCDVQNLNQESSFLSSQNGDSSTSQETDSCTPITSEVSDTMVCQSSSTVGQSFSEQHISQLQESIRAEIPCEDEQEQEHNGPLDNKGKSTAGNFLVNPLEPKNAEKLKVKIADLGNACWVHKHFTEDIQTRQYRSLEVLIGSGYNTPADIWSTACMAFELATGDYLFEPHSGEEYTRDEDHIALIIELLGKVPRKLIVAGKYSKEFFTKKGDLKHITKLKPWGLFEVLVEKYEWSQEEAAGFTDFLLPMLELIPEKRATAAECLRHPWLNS
Sequence of Beta-2 adrenergic receptor (Homo sapiens) (P07550 whole entry, looked up): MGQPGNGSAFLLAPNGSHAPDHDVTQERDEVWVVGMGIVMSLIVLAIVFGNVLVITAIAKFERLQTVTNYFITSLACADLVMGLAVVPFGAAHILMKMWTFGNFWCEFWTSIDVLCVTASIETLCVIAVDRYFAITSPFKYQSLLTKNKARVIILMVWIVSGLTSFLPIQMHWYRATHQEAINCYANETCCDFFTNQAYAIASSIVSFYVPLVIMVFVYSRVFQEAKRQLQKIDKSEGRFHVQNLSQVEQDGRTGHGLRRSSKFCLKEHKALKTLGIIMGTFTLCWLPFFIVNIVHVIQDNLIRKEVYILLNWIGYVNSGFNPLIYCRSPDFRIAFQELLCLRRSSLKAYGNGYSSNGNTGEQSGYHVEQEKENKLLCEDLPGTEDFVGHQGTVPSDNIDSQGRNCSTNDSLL
Sequence of Ribosomal protein S6 kinase alpha-6 (Homo sapiens) (Q9UK32 whole entry): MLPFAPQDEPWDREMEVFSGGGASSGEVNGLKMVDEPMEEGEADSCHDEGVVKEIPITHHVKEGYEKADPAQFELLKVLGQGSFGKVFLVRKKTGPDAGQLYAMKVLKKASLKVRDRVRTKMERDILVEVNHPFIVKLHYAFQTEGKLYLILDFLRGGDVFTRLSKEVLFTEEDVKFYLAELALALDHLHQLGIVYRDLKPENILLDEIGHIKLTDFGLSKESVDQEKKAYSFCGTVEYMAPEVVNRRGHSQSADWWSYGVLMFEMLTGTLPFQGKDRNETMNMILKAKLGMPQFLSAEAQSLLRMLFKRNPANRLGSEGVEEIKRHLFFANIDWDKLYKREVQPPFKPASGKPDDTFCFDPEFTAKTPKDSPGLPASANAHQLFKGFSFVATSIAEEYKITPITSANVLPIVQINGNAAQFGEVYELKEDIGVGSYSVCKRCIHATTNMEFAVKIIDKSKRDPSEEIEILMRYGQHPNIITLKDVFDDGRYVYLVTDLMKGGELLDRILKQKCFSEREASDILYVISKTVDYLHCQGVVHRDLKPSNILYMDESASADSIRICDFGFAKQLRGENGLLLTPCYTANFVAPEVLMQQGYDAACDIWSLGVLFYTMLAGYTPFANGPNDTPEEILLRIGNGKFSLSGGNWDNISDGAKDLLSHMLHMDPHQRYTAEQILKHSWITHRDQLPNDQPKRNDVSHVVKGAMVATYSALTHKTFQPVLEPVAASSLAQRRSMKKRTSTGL
Sequence of Acetylcholinesterase (Homo sapiens) (P22303 whole entry): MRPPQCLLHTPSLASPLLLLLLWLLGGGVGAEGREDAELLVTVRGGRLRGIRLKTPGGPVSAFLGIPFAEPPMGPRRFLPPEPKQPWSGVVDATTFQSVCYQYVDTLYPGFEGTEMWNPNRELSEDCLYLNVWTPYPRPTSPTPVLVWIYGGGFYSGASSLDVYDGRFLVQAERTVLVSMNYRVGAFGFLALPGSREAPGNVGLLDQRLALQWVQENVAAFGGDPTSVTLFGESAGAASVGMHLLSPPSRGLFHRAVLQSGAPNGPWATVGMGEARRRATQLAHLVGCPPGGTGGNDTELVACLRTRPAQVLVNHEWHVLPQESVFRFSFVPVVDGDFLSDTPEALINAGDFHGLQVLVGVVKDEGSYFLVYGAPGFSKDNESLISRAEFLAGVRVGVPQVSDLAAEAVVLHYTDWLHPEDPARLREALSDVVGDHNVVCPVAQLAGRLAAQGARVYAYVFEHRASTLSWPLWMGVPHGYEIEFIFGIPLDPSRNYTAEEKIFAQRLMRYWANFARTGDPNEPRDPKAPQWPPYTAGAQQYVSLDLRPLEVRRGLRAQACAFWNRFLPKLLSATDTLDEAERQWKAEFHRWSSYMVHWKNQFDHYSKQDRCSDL
Sequence of MAP kinase-interacting serine/threonine-protein kinase 2 (Homo sapiens) (Q9HBH9 whole entry, looked up): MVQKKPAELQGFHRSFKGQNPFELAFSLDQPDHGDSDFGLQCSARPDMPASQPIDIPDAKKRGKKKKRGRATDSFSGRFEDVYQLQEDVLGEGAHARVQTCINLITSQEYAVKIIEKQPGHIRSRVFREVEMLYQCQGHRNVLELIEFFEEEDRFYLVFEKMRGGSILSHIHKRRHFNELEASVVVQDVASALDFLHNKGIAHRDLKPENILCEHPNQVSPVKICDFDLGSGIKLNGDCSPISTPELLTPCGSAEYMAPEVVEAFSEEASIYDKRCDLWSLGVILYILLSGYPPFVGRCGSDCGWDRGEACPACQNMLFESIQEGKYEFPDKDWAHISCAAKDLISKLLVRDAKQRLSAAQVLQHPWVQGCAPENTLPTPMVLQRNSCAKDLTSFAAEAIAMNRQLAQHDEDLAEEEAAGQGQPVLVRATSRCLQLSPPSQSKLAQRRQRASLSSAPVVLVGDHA
Sequence of Serine/threonine-protein kinase pim-1 (Homo sapiens) (P11309 whole entry, looked up): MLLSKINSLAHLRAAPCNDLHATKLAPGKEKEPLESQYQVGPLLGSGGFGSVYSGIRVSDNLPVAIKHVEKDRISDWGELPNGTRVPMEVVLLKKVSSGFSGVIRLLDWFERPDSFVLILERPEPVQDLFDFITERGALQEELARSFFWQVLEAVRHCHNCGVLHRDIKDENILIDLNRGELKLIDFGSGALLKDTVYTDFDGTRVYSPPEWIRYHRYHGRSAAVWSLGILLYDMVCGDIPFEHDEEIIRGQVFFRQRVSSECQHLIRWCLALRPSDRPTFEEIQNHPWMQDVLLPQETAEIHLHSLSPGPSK

Consider `O=C(c1ccc(F)cc1)N1CC(COc2ccc(Br)cc2)(C(=O)O)C1` [PF-04475866], for which, in the data set listed under Rattus norvegicus, the inhibition is 16.3%.

For `COc1ccc2cc(OCC3(C(=O)O)CN(C(=O)c4ccc(F)cc4)C3)ccc2c1` [PF-04418948], the residual activity is 89% in [1]; 91% in data set [2]; 80% in [4]; 98% in [5]; 98% in [6]; 98% in data set [7]. Also, the residual activity in [8] was 89%; in data set [9], 97%; in data set [11], 95%; in data set [13], 74%; in data set [14], 79%; in [15] it was 84%. In addition, the residual activity in data set [17] is 77%; in data set [20], 87%; in data set [21], 72%; in data set [22], 91%; in [23], 96%; in [26], 88%. Further, the residual activity in [28] is 84%; in [29] it was 97%; in data set [30] it was 96%; in [34], 99%; in data set [35], 87%; in data set [36], 80%. Also, the inhibition is -4% in [3]; -3% in [10]; 4% in data set [12]; 45% in [16]; -1% in [18]; -5% in [19]. Also, the inhibition in data set [25] is -2%; in data set [27], -8%; in data set [31] it was 10%; in [32], -1%; in data set [33], -7%. The inhibition at 10 µM at CYP2C9 was 41% (not active); in [24], 6% (not active).

The values above are taken from ChEMBL document CHEMBL4507298 (2021).
